The source of these data is patent US20210221785A1, “AMINO-PYRIMIDONYL DERIVATIVES, A PROCESS FOR THEIR PREPARATION AND PHARMACEUTICAL COMPOSITIONS CONTAINING THEM” (LES LABORATOIRES SERVIER, priority 2018, published 2021).

In general, IC50 refers to the concentration at which inhibition is half-maximal.

T1 sequence (Q93009 208-560 C315A): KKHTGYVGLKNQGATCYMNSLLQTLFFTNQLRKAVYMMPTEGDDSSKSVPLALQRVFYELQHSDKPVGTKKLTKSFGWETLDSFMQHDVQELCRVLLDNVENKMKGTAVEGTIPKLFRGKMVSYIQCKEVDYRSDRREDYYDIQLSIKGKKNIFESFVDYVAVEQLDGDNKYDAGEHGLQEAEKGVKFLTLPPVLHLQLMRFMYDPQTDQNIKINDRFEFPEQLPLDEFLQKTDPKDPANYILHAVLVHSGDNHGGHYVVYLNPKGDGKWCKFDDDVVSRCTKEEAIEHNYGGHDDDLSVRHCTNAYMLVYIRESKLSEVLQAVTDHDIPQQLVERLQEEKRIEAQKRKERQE

The experiment has as its target T1, His-His-USP7 (aa208-560, |C315A|) (Homo sapiens, UniProt Q93009, C315A).
T1 construct: His-His-USP7 (aa208-560, |C315A|); His-His (N)
The experiment is described as follows: Evaluation of the inhibition of USP7 by the Fluorescence Intensity (FLINT) readings. To be noted: 0.25 nM His-His-USP7, compound incubated 60 minutes at 30° C., 500 nM Ubiquitin-Rhodamine-110 substrate; 50% reduction in kinetic rate. It is filed as biochemical. The procedure:
USP7 activity was measured using Rhodamine-110 c-terminal labelled Ubiquitin as a substrate (UbiQ Bio). Incubation with USP7 results in the release of Rhodamine-110 leading to an increase in fluorescence which can be used in the continuous measurement of USP7 activity.
The USP7 reactions were performed in a 50 μL volume, in 384 well black solid low binding plates (Corning #3575). The reaction buffer consisted of 100 mM Bicine pH 8.0, 0.01% TritonX100, 1 mM TCEP, and 10% DMSO.
0.25 nM His-His-USP7 (aa208-560, |C315A|) was incubated with compound (final concentration 10% DMSO) for 60 minutes at 30° C. The reaction was then initiated by the addition of 500 nM Ubiquitin-Rhodamme-110 substrate and the plate read every 3 minutes for 21 minutes to measure the release of Rhodamine-110. Fluorescence Intensity (FLINT) readings were measured using a […] plate reader (Ex.485 nm, Em.535 nm).
The inhibition of increasing doses of compound was expressed as a percentage reduction in kinetic rate compared to the kinetic rates established between ‘DMSO only’ and ‘total inhibition’ controls (no USP7). The inhibitory concentrations that gave a 50% reduction in kinetic rate (IC50) were determined, from 11-point dose response cures, in XL-Fit using a 4-Parameter Logistic Model 205 (Sigmoidal Dose-Response Model).
In turn, `Nc1c(Oc2cccnc2)ncn(CC2(O)CCN(C(=O)C3CCC(F)(F)CC3c3ccccc3)CC2)c1=O` (stereo not drawn) [Example 84, 5-amino-3-({1-[(1,2-trans)-4,4-difluoro-2-phenylcyclohexane-1-carbonyl]-4-hydroxypiperidin-4-yl}methyl)-6-[(pyridin-3-yl)oxy]pyrimidin-4(3H)-one] yielded a half-maximal inhibitory concentration (IC50) of 212 nM.

As for `Nc1c(Oc2ccc(CN3CCOCC3)cc2)ncn(CC2(O)CCN(C(=O)[C@@H]3CCC(F)(F)C[C@H]3c3ccccc3)CC2)c1=O` [Example 113, 5-amino-3-({1-[(1R,2R)-4,4-difluoro-2-phenylcyclohexane-1-carbonyl]-4-hydroxypiperidin-4-yl}methyl)-6-{4-[(morpholin-4-yl)methyl]phenoxyl}pyrimidin-4(3H)-one], inhibition was half-maximal at 140 nM (IC50).

`Nc1c(Oc2cc(F)cc(F)c2)ncn(CC2(O)CCN(C(=O)[C@@H]3CCC(F)(F)C[C@H]3c3ccccc3)CC2)c1=O` [Example 8, 5-amino-6-(3,5-difluorophenoxy)-3-({1-[(1R,2R)-4,4-difluoro-2-phenylcyclohexane-1-carbonyl]-4-hydroxypiperidin-4-yl}methyl)pyrimidin-4(3H)-one] came in with a 50% inhibitory concentration (IC50) of 472 nM.

`N#Cc1ccc(Oc2ncn(CC3(O)CCN(C(=O)[C@@H]4CCC(F)(F)C[C@H]4c4ccccc4)CC3)c(=O)c2N)cc1F` [Example 50, 4-{[5-amino-1-({1-[(1R,2R)-4,4-fluoro-2-phenylcyclohexane-1-carbonyl]-4-hydroxypiperidin-4-yl}methyl)-6-oxo-1,6-dihydropyrimidin-4-yl]oxy}-2-fluorobenzonitrile] gave a 50% inhibitory concentration (IC50) of 116 nM.

In turn, `Nc1c(Oc2ccc(F)cc2)ncn(CC2(O)CCN(C(=O)[C@@H]3CC[C@](O)(Cc4cnccn4)C[C@H]3c3ccccc3)CC2)c1=O` (relative stereo) [Example 98, rel-5-amino-6-(4-fluorophenoxy)-3-[(4-hydroxy-1-{([(1R,2R,4R)-4-hydroxy-2-phenyl-4-(pyrazin-2-ylmethyl)cyclohexyl]carbonyl}piperidin-4-yl)methyl]pyrimidin-4-one] yielded an IC50 of 223 nM.

In turn, `Nc1c(Oc2ccc(CN(C=O)CC(F)(F)F)cc2)ncn(CC2(O)CCN(C(=O)[C@@H]3CCC(F)(F)C[C@H]3c3ccccc3)CC2)c1=O` [Example 74, N-[(4-{[5-amino-1-({1-[(1R,2R)-4,4-difluoro-2-phenylcyclohexane-1-carbonyl]-4-hydroxypiperidin-4-yl}methyl)-6-oxo-1,6-dihydropyrimidin-4-yl]oxy}phenyl)methyl]-N-(2,2,2-trifluoroethyl)formamide] registered a 50% inhibitory concentration (IC50) of 227 nM.

`COC(=O)c1cccc(Oc2ncn(CC3(O)CCN(C(=O)[C@@H]4CCC(F)(F)C[C@H]4c4ccccc4)CC3)c(=O)c2N)c1` [Example 27, methyl 3-{[5-amino-1-({1-[(1R,2R)-4,4-difluoro-2-phenylcyclohexane-1-carbonyl]-4-hydroxypiperidin-4-yl}methyl)-6-oxo-1,6-dihydropyrimidin-4-yl]oxy}benzoate] registered an IC50 of 85 nM.

For the compound `O=C([C@@H]1CCC(F)(F)C[C@H]1c1ccccc1)N1CCC(O)(Cn2cnc(Oc3ccccc3)c(NCC(F)(F)F)c2=O)CC1` [Example 17, 3-({1-[(1R,2R)-4,4-difluoro-2-phenylcyclohexane-1-carbonyl]-4-hydroxypiperidin-4-yl}methyl)-6-phenoxy-5-[(2,2,2-trifluoroethyl)amino]pyrimidin-4(3H)-one], it took 1250 nM to reach half-maximal inhibition (IC50).

In turn, `NC(=O)c1ccc(Oc2ncn(CC3(O)CCN(C(=O)[C@@H]4CCC(F)(F)C[C@H]4c4ccccc4)CC3)c(=O)c2N)cc1` [Example 58, 4-{[5-amino-1-({1-[(1R,2R)-4,4-difluoro-2-phenylcyclohexane-1-carbonyl]-4-hydroxypiperidin-4-yl}methyl)-6-oxo-1,6-dihydropyrimidin-4-yl]oxy}benzamide] showed an IC50 of 67 nM.

On to `Nc1c(Oc2cccc(C3CCCCN3)c2)ncn(CC2(O)CCN(C(=O)[C@@H]3CCC(F)(F)C[C@H]3c3ccccc3)CC2)c1=O` (stereo partly drawn) [Example 47, 5-amino-3-({1-[(1R,2R)-4,4-difluoro-2-phenylcyclohexane-1-carbonyl]-4-hydroxypiperidin-4-yl}methyl)-6-[3-(piperidin-2-yl)phenoxy]pyrimidin-4(3H)-one], for which the IC50 was 8.81 nM.

Compound `C#C[C@@]1(O)CC[C@@H](C(=O)N2CCC(O)(Cn3cnc(Oc4ccc(F)cc4)c(N)c3=O)CC2)[C@H](c2ccccc2)C1` (relative stereo) [Example 91, rel-5-amino-3-([1-[(1R,2R,4R)-4-ethynyl-4-hydroxy-2-phenyl-cyclohexanecarbonyl]-4-hydroxypiperidin-4-yl]methyl)-6-(4-fluorophenoxy)-3,4-dihydropyrimidin-4-one] had an IC50 of 289 nM.

`Nc1c(Oc2ccc([C@@H](N)C(F)(F)F)cc2)ncn(CC2(O)CCN(C(=O)[C@@H]3CCC(F)(F)C[C@H]3c3ccccc3)CC2)c1=O` [Example 116, 5-amino-6-{4-[(1R)-1-amino-2,2,2-trifluoroethyl]phenoxy}-3-({1-[(1R,2R)-4,4-difluoro-2-phenylcyclohexane-1-carbonyl]-4-hydroypiperidin-4-yl}methyl)pyrimidin-4(3H)-one] displayed a half-inhibitory concentration (IC50) of 86.2 nM.

As for `Nc1c(Oc2ccc(CNc3ccccc3)cc2)ncn(CC2(O)CCN(C(=O)[C@@H]3CCC(F)(F)C[C@H]3c3ccccc3)CC2)c1=O` [Example 70, 5-amino-6-[4-(anilinomethyl)phenoxy]-3-({1-[(1R,2R)-4,4-difluoro-2-phenylcyclohexane-1-carbonyl]-4-hydroxypiperidin-4-yl}methyl)pyrimidin-4(3H)-one], the IC50 was 134 nM.

`O=C([C@@H]1CCC(F)(F)C[C@H]1c1ccccc1)N1CCC(O)(Cn2cnc(Oc3ccc(F)cc3)c(NCc3ccccc3)c2=O)CC1` [Example 57, 5-(benzylamino)-3-({1-[(1R,2R)-4,4-difluoro-2-phenylcyclohexane-1-carbonyl]-4-hydroxypiperidin-4-yl}methyl)-6-(4-fluorophenoxy)pyrimidin-4(3H)-one] registered a concentration for half-maximal inhibition (IC50) of 611 nM.

Regarding `Nc1c(Oc2ccc(CCF)cc2)ncn(CC2(O)CCN(C(=O)[C@@H]3CCC(F)(F)C[C@H]3c3ccccc3)CC2)c1=O` [Example 39, 5-amino-3-({1-[(1R,2R)-4,4-difluoro-2-phenylcyclohexane-1-carbanyl]-4-hydroxypiperidin-4-yl}methyl)-6-[4-(2-fluoroethyl)phenoxy]pyrimidin4(3H)-one], the concentration for half-maximal inhibition (IC50) came to 116 nM.

The compound `C#C[C@@]1(OC)CC[C@@H](C(=O)N2CCC(O)(Cn3cnc(Oc4ccc(F)cc4)c(N)c3=O)CC2)[C@H](c2ccccc2)C1` [Example 155, 5-amino-3-[(1-{[(1R,2R,4R)-4-ethynyl-4-methoxy-2-phenylcyclohexyl]carbonyl}-4-hydroxypiperidin-4-yl)methyl]-6-(4-fluorophenoxy)pyrimidin-4-one] showed an IC50 of 179 nM.

Consider `CO[C@]1(C(=O)N2CCC(O)(Cn3cnc(Oc4ccc(F)cc4)c(N)c3=O)CC2)CC[C@H](C#Cc2nccn2C)C[C@@H]1c1ccccc1` [Example 160, 5-amino-6-(4-fluorophenoxy)-3-[(4-hydroxy-1-{[(1R,2R,4S)-1-methoxy-4-[2-(1-methylimidazol-2-yl)ethynyl]-2-phenylcyclohexyl]carbonyl}piperidin-4-yl)methyl]pyrimidin-4-one], for which the 50% inhibitory concentration (IC50) was 138 nM.

The compound `Nc1c(Oc2ccc(F)cc2)ncn(CC2(O)CCN(C(=O)[C@@H]3CC[C@](F)(C#Cc4ccccc4)C[C@H]3c3ccccc3)CC2)c1=O` [Example 135, 5-amino-3-({1-[(1R,2R,4R)-4-fluoro-2-phenyl-4-(2-phenylethynyl)cyclohexanecarbonyl]-4-hydroxypiperidin-4-yl}methyl)-6-(4-fluorophenoxy)-3,4-dihydropyrimidin-4-one] came in with a half-maximal inhibitory concentration (IC50) of 36.4 nM.

`Nc1c(Oc2cccc(F)c2)ncn(CC2(O)CCN(C(=O)[C@@H]3CCC(F)(F)C[C@H]3c3ccccc3)CC2)c1=O` [Example 6, 5-amino-3-({1-[(1R,2R)-4,4-difluoro-2-phenylcyclohexane-1-carbonyl]-4-hydroxypiperidin-4-yl}methyl)-6-(3-fluorophenoxy)pyrimidin-4(3H)-one] came in with an IC50 of 183 nM.

With `Nc1c(Oc2ccc(F)c(OC(F)(F)F)c2)ncn(CC2(O)CCN(C(=O)[C@@H]3CCC(F)(F)C[C@H]3c3ccccc3)CC2)c1=O` [Example 40, 5-amino-3-({1-[(1R,2R)-4,4-difluoro-2-phenylcyclohexane-1-carbonyl]-4-hydroxypiperidin-4-yl}methyl)-6-[4-fluoro-3-(trifluoromethoxy)phenoxy]pyrimidin-4(3H)-one], half-maximal inhibition (IC50) required 132 nM.

Turning to `NC(=O)c1ccc(Oc2ncn(CC3(O)CCN(C(=O)[C@@H]4CCC(F)(F)C[C@H]4c4ccccc4)CC3)c(=O)c2N)cc1F` [Example 81, 4-{[5-amino-1-({1-[(1R,2R)-4,4-difluoro-2-phenylcyclohexane-1-carbonyl]-4-hydroxypiperidin-4-yl}methyl)-6-oxo-1,6-dihydropyrimidin-4-yl]oxy}-2-fluorobenzamide], half-maximal inhibition (IC50) required 403 nM.
